The record followed here is patent US9555038B2, “Heterocycle-substituted tetracyclic compounds and methods of use thereof for the treatment of viral diseases” (Merck Sharp & Dohme Corp., priority 2013, dated 2017).

Structures are written as SMILES. Like-named read-outs stand apart in the source and are kept apart here.

Assay [1] has as its system HCV replicon 1B. In words: Cell-based HCV Replicon Assay B, replicon 1B. In short, it runs like this: (§1)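 Replicon cells seeded in 5% FBS; compounds added 24 h later, then 3 days' incubation. Replicon RNA quantified by real-time RT-PCR with genotype-specific primers/probes (NS5B amplicon for 1b). EC50 = concentration raising CT by 1 over projected baseline.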
For assay [2], the system named is HCV replicon 1AY93H. The assay can be described thus: Cell-based HCV Replicon Assay A, replicon 1AY93H. The following applies: read-out: 1A Y93H IC50, replicon 1AY93H. In short, it runs like this:
(§2)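 Replicon cells seeded at 2000 cells/well with compound, 10 serial dilutions starting at 333.3 nM to 1.667 nM, 0.5% DMSO, 5% FBS, harvested on day 3. Replicon RNA measured by multiplex TaqMan RT-PCR with cyclophilin as endogenous control, quantified from standard curves of Ct vs log ng RNA.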

Assay [3] deals with HCV replicon 1A. In words: Cell-based HCV Replicon Assay A, replicon 1A. In short, it runs like this:
as §2
For orientation: Replicon systems follow genome replication, usually without infectious particles.

Assay [4] concerns HCV replicon 1AQ30D. In words: Cell-based HCV Replicon Assay B, replicon 1AQ30D. An outline of the steps: as §1
The subject of assay [5] is HCV replicon 2B. The assay can be described thus: Cell-based HCV Replicon Assay A, replicon 2B. An outline of the steps:
as §2

Setting [6] is: read-out: 1A Q30D IC50, replicon 1AQ30D.
The mark [7] stands for this setting: Hepatitis C virus, read-out: 1A Q30D IC50 (nM), replicon 1AQ30D.

On to `COC(=O)NC(C(=O)N1[C@@H]2C[C@@H]2C[C@H]1c1ncc(-c2ccc3c(c2)cc2n3C(c3cnc(CC(C)C)s3)Oc3cc(-c4cnc([C@@H]5CCCN5C(=O)[C@@H](NC(=O)OC)C(C)C)[nH]4)cc(F)c3-2)[nH]1)C1C[C@@H](C)O[C@@H](C)C1` (single isomer, unassigned) [Compound 441], for which the IC50 was found to be 3.4 pM in assay [1]; 3 pM in assay [2]; 2.5 pM in assay [3]; 0.011 nM in assay [4] (setting [6]); 0.006 nM in assay [5] (read-out: 2B IC50, replicon 2B).
For `CCC(CC)c1ncc(C2Oc3cc(-c4cnc([C@@H]5CCCN5C(=O)[C@@H](NC(=O)OC)C(C)C)[nH]4)cc(F)c3-c3cc4cc(-c5cnc([C@@H]6CCCN6C(=O)C(NC(=O)OC)C6CCOC(C)(C)C6)[nH]5)ccc4n32)s1` (single isomer, unassigned) [Compound 444], the IC50 in assay [1] (Hepatitis C virus) was found to be 3.8 pM; in assay [2], 5 pM; in assay [3] (Hepatitis C virus), 2.2 pM; in assay [4] (setting [6]), 0.038 nM; in assay [5] (read-out: 2B IC50, replicon 2B) it was 0.007 nM.
In the case of `CCC(CC)c1ncc(C2Oc3cc(-c4cnc([C@@H]5CCCN5C(=O)[C@@H](NC(=O)OC)C(C)C)[nH]4)cc(F)c3-c3cc4cc(-c5cnc([C@@H]6CCCN6C(=O)C(NC(=O)OC)C6CCOC(C)(C)C6)[nH]5)ccc4n32)s1` (single isomer, unassigned) [Compound 445], the IC50 in assay [1] was 4.6 pM; in assay [2], 107 pM; in assay [3], 2.8 pM; in assay [4] (setting [6]) it was 0.949 nM; in assay [5] (read-out: 2B IC50, replicon 2B), 0.096 nM.
On to `COC(=O)NC(C(=O)N1CCC[C@H]1c1ncc(-c2ccc3c(c2)cc2n3C(c3cnc(C4(C)CCCC4)s3)Oc3cc(-c4cnc([C@@H]5CCCN5C(=O)[C@@H](NC(=O)OC)C(C)C)[nH]4)cc(F)c3-2)[nH]1)C1CCOC(C)(C)C1` (single isomer, unassigned) [Compound 446], for which the IC50 in assay [1] (Hepatitis C virus) is 3.4 pM; in assay [2], 4 pM; in assay [3] (Hepatitis C virus) it was 1.8 pM; in assay [4] (setting [6]), 0.034 nM; in assay [5] (read-out: 2B IC50, replicon 2B) it was 0.005 nM.
Consider `COC(=O)NC(C(=O)N1CCC[C@H]1c1ncc(-c2ccc3c(c2)cc2n3C(c3cnc(C4(C)CCCC4)s3)Oc3cc(-c4cnc([C@@H]5CCCN5C(=O)[C@@H](NC(=O)OC)C(C)C)[nH]4)cc(F)c3-2)[nH]1)C1CCOC(C)(C)C1` (single isomer, unassigned) [Compound 447], for which the IC50 in assay [1] was found to be 3.3 pM; in assay [2] it was 259 pM; in assay [3], 2.8 pM; in assay [4] (setting [6]), 0.607 nM; in assay [5] (read-out: 2B IC50, replicon 2B) it was 0.059 nM.
As for `COC(=O)NC(C(=O)N1CCC[C@H]1c1ncc(-c2ccc3c(c2)cc2n3C(c3cnc(C4CCOCC4)s3)Oc3cc(-c4cnc([C@@H]5CCCN5C(=O)[C@@H](NC(=O)OC)C(C)C)[nH]4)cc(F)c3-2)[nH]1)C1CCOC(C)(C)C1` (single isomer, unassigned) [Compound 448], the IC50 in assay [1] (Hepatitis C virus) amounted to 6 pM; in assay [2], 13 pM; in assay [3] (Hepatitis C virus), 4.7 pM; in assay [4] (setting [6]), 0.113 nM; in assay [5] (read-out: 2B IC50, replicon 2B), 0.011 nM.
For `COC(=O)NC(C(=O)N1CCC[C@H]1c1ncc(-c2ccc3c(c2)cc2n3C(c3cnc(C4CCOCC4)s3)Oc3cc(-c4cnc([C@@H]5CCCN5C(=O)[C@@H](NC(=O)OC)C(C)C)[nH]4)cc(F)c3-2)[nH]1)C1CCOC(C)(C)C1` (single isomer, unassigned) [Compound 449], the IC50 in assay [1] worked out at 3.4 pM; in assay [2] it was 64 pM; in assay [3], 4.3 pM; in assay [4] (setting [6]), 0.737 nM; in assay [5] (read-out: 2B IC50, replicon 2B) it was 0.044 nM.
Turning to `COC(=O)N[C@H](C(=O)N1CCC[C@H]1c1ncc(-c2cc(F)c3c(c2)OC(c2cnc(C4(C)CC4)s2)n2c-3cc3cc(-c4cnc([C@@H]5C[C@H]6C[C@H]6N5C(=O)[C@@H](NC(=O)OC)C(C)C)[nH]4)ccc32)[nH]1)C(C)C` (single isomer, unassigned) [Compound 452], the half-inhibitory concentration (IC50) in assay [1] (Hepatitis C virus) came to 2.5 pM; in assay [2] it was 4 pM; in assay [3] (Hepatitis C virus), 2.7 pM; in assay [4] (setting [6]) it was 0.093 nM; in assay [5] (read-out: 2B IC50, replicon 2B), 0.04 nM.
Turning to `COC(=O)N[C@H](C(=O)N1CCC[C@H]1c1ncc(-c2cc(F)c3c(c2)OC(c2cnc(C4(C)CC4)s2)n2c-3cc3cc(-c4cnc([C@@H]5C[C@H]6C[C@H]6N5C(=O)[C@@H](NC(=O)OC)C(C)C)[nH]4)ccc32)[nH]1)C(C)C` (single isomer, unassigned) [Compound 453], the half-maximal inhibitory concentration (IC50) is 2 pM in assay [1]; 210 pM in assay [2]; 2.3 pM in assay [3]; 2.14 nM in assay [4] (setting [6]); 0.65 nM in assay [5] (read-out: 2B IC50, replicon 2B).
Consider `COC(=O)N[C@H](C(=O)N1CCC[C@H]1c1ncc(-c2cc(F)c3c(c2)OC(c2cnc(C4(C)CCCC4)s2)n2c-3cc3cc(-c4cnc([C@@H]5C[C@H]6C[C@H]6N5C(=O)[C@@H](NC(=O)OC)C(C)C)[nH]4)ccc32)[nH]1)C(C)C` (single isomer, unassigned) [Compound 454], for which the concentration for half-maximal inhibition (IC50) in assay [1] (Hepatitis C virus) was 3.1 pM; in assay [2] it was 2 pM; in assay [3] (Hepatitis C virus), 2.3 pM; in assay [4] (setting [7]), 0.047 nM; in assay [5] (Hepatitis C virus, read-out: 2B IC50 (nM), replicon 2B), 0.052 nM.
As to `COC(=O)NC(C(=O)N1CCC[C@H]1c1ncc(-c2ccc3c(c2)cc2n3C(c3cnc(C4(C)CC4)s3)Oc3cc(-c4cnc([C@@H]5CCCN5C(=O)[C@@H](NC(=O)OC)C(C)C)[nH]4)cc(F)c3-2)[nH]1)C1CCOC(C)(C)C1` (single isomer, unassigned) [Compound 457], the IC50 came to 3.6 pM in assay [1] (Hepatitis C virus); 7 pM in assay [2]; 3.3 pM in assay [3] (Hepatitis C virus); 0.07 nM in assay [4] (setting [6]); 0.005 nM in assay [5] (read-out: 2B IC50, replicon 2B).
With `COC(=O)NC(C(=O)N1CCC[C@H]1c1ncc(-c2ccc3c(c2)cc2n3C(c3cnc(C4(C)CC4)s3)Oc3cc(-c4cnc([C@@H]5CCCN5C(=O)[C@@H](NC(=O)OC)C(C)C)[nH]4)cc(F)c3-2)[nH]1)C1CCOC(C)(C)C1` (single isomer, unassigned) [Compound 458], the half-inhibitory concentration (IC50) in assay [1] stood at 3.5 pM; in assay [2] it was 7 pM; in assay [3] it was 3 pM; in assay [4] (setting [6]), 0.024 nM; in assay [5] (read-out: 2B IC50, replicon 2B) it was 0.007 nM.
For the compound `COC(=O)NC(C(=O)N1CCC[C@H]1c1ncc(-c2ccc3c(c2)cc2n3C(c3cnc(C4(C)CC4)s3)Oc3cc(-c4cnc([C@@H]5CCCN5C(=O)[C@@H](NC(=O)OC)C(C)C)[nH]4)cc(F)c3-2)[nH]1)C1C[C@@H](C)O[C@@H](C)C1` (single isomer, unassigned) [Compound 462], the IC50 was determined as 3.1 pM in assay [1]; 7 pM in assay [2]; 3.5 pM in assay [3]; 0.038 nM in assay [4] (setting [7]); 0.007 nM in assay [5] (read-out: 2B IC50, replicon 2B).
In the case of `COC(=O)NC(C(=O)N1[C@@H]2C[C@@H]2C[C@H]1c1ncc(-c2ccc3c(c2)cc2n3C(c3cnc(C4(C)CC4)s3)Oc3cc(-c4cnc([C@@H]5CCCN5C(=O)[C@@H](NC(=O)OC)C(C)C)[nH]4)cc(F)c3-2)[nH]1)C1C[C@@H](C)O[C@@H](C)C1` (single isomer, unassigned) [Compound 463], the IC50 in assay [1] (Hepatitis C virus) came out at 2.8 pM; in assay [2], 2 pM; in assay [3] (Hepatitis C virus), 2.6 pM; in assay [4] (setting [6]) it was 0.012 nM; in assay [5] (read-out: 2B IC50, replicon 2B), 0.007 nM.
On to `COC(=O)NC(C(=O)N1[C@@H]2C[C@@H]2C[C@H]1c1ncc(-c2ccc3c(c2)cc2n3C(c3cnc(C4(C)CC4)s3)Oc3cc(-c4cnc([C@@H]5CCCN5C(=O)[C@@H](NC(=O)OC)C(C)C)[nH]4)cc(F)c3-2)[nH]1)C1C[C@@H](C)O[C@@H](C)C1` (single isomer, unassigned) [Compound 464], for which the IC50 in assay [1] turned out to be 3.4 pM; in assay [2] it was 197 pM; in assay [3], 2.8 pM; in assay [4] (setting [6]), 1.23 nM; in assay [5] (read-out: 2B IC50, replicon 2B), 0.282 nM.
Regarding `COC(=O)NC(C(=O)N1[C@@H]2C[C@@H]2C[C@H]1c1ncc(-c2ccc3c(c2)cc2n3C(c3cnc(C4(C)CC4)s3)Oc3cc(-c4cnc([C@@H]5CCCN5C(=O)[C@@H](NC(=O)OC)C(C)C)[nH]4)cc(F)c3-2)[nH]1)C1CCOC(C)(C)C1` (single isomer, unassigned) [Compound 465], the half-inhibitory concentration (IC50) in assay [1] (Hepatitis C virus) is 3.9 pM; in assay [2], 2 pM; in assay [3] (Hepatitis C virus), 2.7 pM; in assay [4] (setting [6]), 0.022 nM; in assay [5] (read-out: 2B IC50, replicon 2B) it was 0.005 nM.
Regarding `COC(=O)NC(C(=O)N1[C@@H]2C[C@@H]2C[C@H]1c1ncc(-c2ccc3c(c2)cc2n3C(c3cnc(C4(C)CC4)s3)Oc3cc(-c4cnc([C@@H]5CCCN5C(=O)[C@@H](NC(=O)OC)C(C)C)[nH]4)cc(F)c3-2)[nH]1)C1CCOC(C)(C)C1` (single isomer, unassigned) [Compound 466], the IC50 in assay [1] turned out to be 3 pM; in assay [2], 2 pM; in assay [3], 2.7 pM; in assay [4] (setting [6]) it was 0.015 nM; in assay [5] (read-out: 2B IC50, replicon 2B), 0.005 nM.
`COC(=O)NC(C(=O)N1[C@@H]2C[C@@H]2C[C@H]1c1ncc(-c2ccc3c(c2)cc2n3C(c3cnc(C4(C)CC4)s3)Oc3cc(-c4cnc([C@@H]5CCCN5C(=O)[C@@H](NC(=O)OC)C(C)C)[nH]4)cc(F)c3-2)[nH]1)C1CCOC(C)(C)C1` (single isomer, unassigned) [Compound 467]: the half-maximal inhibitory concentration (IC50) in assay [1] amounted to 3.4 pM; in assay [2] it was 209 pM; in assay [3], 3 pM; in assay [4] (setting [6]), 1.4 nM; in assay [5] (read-out: 2B IC50, replicon 2B) it was 0.158 nM.

In general, IC50 refers to the concentration at which inhibition is half-maximal.
